For one compound, Concentration and IC50 results are on record in ChEMBL document CHEMBL1136051, “Synthesis and antiproliferative activity of a new compound containing an alpha-methylene-gamma-lactone group” (J Med Chem, 2002).

Assay [1] deals with HL-60. Put plainly: Concentration required for endonucleolytic DNA cleavage in HL-60 cells. It is filed as functional, cell-based. Conditions: Homo sapiens.
Assay [2] deals with HL-60. The assay can be described thus: In vitro antiproliferative activity against HL-60 myeloid leukemia HL-60 cells in culture. Format: functional, cell-based. Conditions: Homo sapiens.

Usually IC50 stands for the point on the concentration scale where inhibition reaches its midpoint. `C=C1C(=O)O[C@H](CCc2ccc(OC)cc2)[C@H]1C` showed a Concentration in assay [1] of 5 µM. In addition, the IC50 in assay [2] turned out to be 4 µM.
